Reference: patent US10501518B2 (priority 2013, dated 2019)
Starred links: 1 amine or outer side, 2 acyl side, 3 side chain; linkers in the order of their positions; H or OH if unused. Non-standard residues stand in square brackets, D forms with d. Residues, ends and D or L forms follow the SMILES beside them. *: point of attachment. NH(1S,2S-2-CONH2-cPent) = NC(=O)[C@H]1CCC[C@@H]1N*; X12 = O=C([C@H]1CCC[C@@H]1N[*:1])[*:2]; X13 = O=C([C@H]1CNC[C@@H]1N[*:1])[*:2]; ACPC(1S,2S) = N[C@H]1CCC[C@@H]1C(=O)*; hArg = N=C(N)NCCCC[C@H](N)C(=O)O; β3hE = N[C@@H](CCC(=O)O)CC(=O)O; β3hD = NC(CC(=O)O)CC(=O)O; Aib = CC(C)(N)C(=O)O

What follows are compounds tested against T1, PTHR (Homo sapiens, UniProt Q03431) (assay: cAMP induction potency, N-terminal modifications and cyclic constraints (Tables 9, 10, 13)). Conditions: Table 9.
T1 construct: expressed in transfected cells
T1 sequence (Q03431 27-593): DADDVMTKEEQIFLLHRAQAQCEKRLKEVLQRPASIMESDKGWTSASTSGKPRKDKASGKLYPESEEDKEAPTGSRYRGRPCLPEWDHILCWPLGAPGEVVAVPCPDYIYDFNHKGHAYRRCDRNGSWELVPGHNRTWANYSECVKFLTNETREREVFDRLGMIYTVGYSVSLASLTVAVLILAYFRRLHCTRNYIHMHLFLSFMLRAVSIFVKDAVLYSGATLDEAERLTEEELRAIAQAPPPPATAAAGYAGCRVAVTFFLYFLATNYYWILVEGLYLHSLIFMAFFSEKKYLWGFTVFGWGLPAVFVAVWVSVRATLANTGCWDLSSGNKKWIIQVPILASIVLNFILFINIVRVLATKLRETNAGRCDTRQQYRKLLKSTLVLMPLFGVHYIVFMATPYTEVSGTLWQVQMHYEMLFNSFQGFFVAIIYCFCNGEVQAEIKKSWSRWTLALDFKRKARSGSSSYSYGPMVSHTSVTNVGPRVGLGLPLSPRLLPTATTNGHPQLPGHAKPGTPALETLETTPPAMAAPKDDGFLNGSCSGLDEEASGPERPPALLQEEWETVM
Type: cell-based
Procedure: For cAMP dose-response assays, monolayers of confluent HEK 293 cells were pre-incubated with buffer containing d-luciferin (0.5 mM) in 96 well plates at room temperature until a stable baseline level of luminescence was established (30 min). Varying concentrations of agonist were then added, and the time course of luminescence response was recorded using a Perkin Elmer plate reader following α/β-peptide addition.
With “XVSEXQXMHNLGKWLNSMERVEWLRKKLQDVHNF-NH2 [D6_ACPC(1,5,7)]” the “Fold PTH” value was 2,045. `CSCC[C@H](NC(=O)[C@H]1CCC[C@@H]1NC(=O)[C@H](CCC(N)=O)NC(=O)[C@H]1CCC[C@@H]1NC(=O)[C@H](CCC(=O)O)NC(=O)[C@H](CO)NC(=O)[C@@H](NC(=O)[C@H]1CCC[C@@H]1N)C(C)C)C(=O)N[C@@H](Cc1c[nH]cn1)C(=O)N[C@@H](CC(N)=O)C(=O)N[C@@H](CC(C)C)C(=O)NCC(=O)N[C@@H](CCCCN)C(=O)N[C@H]1CCC[C@@H]1C(=O)N[C@@H](CC(C)C)C(=O)N[C@@H](CC(N)=O)C(=O)N[C@@H](CO)C(=O)N[C@H]1CCC[C@@H]1C(=O)N[C@@H](CCC(=O)O)C(=O)N[C@@H](CCCNC(=N)N)C(=O)N[C@H](C(=O)N[C@@H](CCC(=O)O)CC(=O)N[C@@H](Cc1c[nH]c2ccccc12)C(=O)N[C@@H](CC(C)C)C(=O)N[C@@H](CCCNC(=N)N)C(=O)N[C@H]1CNC[C@@H]1C(=O)N[C@@H](CCCCN)C(=O)N[C@@H](CC(C)C)C(=O)N[C@@H](CCC(N)=O)C(=O)N[C@@H](CC(=O)O)CC(=O)N[C@H](C(=O)N[C@@H](Cc1c[nH]cn1)C(=O)N[C@@H](CC(N)=O)C(=O)N[C@H]1CCC[C@@H]1C(N)=O)C(C)C)C(C)C` [CycD6_ACPC(1,5,7), XVSEXQXMHNLGKXLNSXERVEWLRZKLQDVHNX-NH2] ({ACPC(1S,2S)}-VSE[X12]Q[X12]MHNLGK[X12]LNS[X12]ERV[β3hE]WLR[X13]KLQ[β3hD]VHN-{NH(1S,2S-2-CONH2-cPent)}; N-terminus assumed) was tested, and the “Fold PTH” value was 266. For `CC[C@H](C)[C@H](NC(=O)[C@H](CCC(=O)O)NC(=O)[C@H](CO)NC(=O)[C@@H](NC(=O)[C@@H](N)CO)C(C)C)C(=O)N[C@@H](CCC(N)=O)C(=O)N[C@@H](CC(C)C)C(=O)N[C@@H](CCSC)C(=O)N[C@@H](Cc1c[nH]cn1)C(=O)N[C@@H](CC(N)=O)C(=O)N[C@@H](CC(C)C)C(=O)NCC(=O)N[C@@H](CCCCN)C(=O)N[C@H]1CCC[C@@H]1C(=O)N[C@@H](CC(C)C)C(=O)N[C@@H](CC(N)=O)C(=O)N[C@@H](CO)C(=O)N[C@H]1CCC[C@@H]1C(=O)N[C@@H](CCC(=O)O)C(=O)N[C@@H](CCCNC(=N)N)C(=O)N[C@H](C(=O)N[C@@H](CCC(=O)O)CC(=O)N[C@@H](Cc1c[nH]c2ccccc12)C(=O)N[C@@H](CC(C)C)C(=O)N[C@@H](CCCNC(=N)N)C(=O)N[C@H]1CNC[C@@H]1C(=O)N[C@@H](CCCCN)C(=O)N[C@@H](CC(C)C)C(=O)N[C@@H](CCC(N)=O)C(=O)N[C@@H](CC(=O)O)CC(=O)N[C@H](C(=O)N[C@@H](Cc1c[nH]cn1)C(=O)N[C@@H](CC(N)=O)C(=O)N[C@H]1CCC[C@@H]1C(N)=O)C(C)C)C(C)C` [cycD6, SVSEIQLMHNLGKXLNSXERVEWLRZKLQDVHNX-NH2] (H-SVSEIQLMHNLGK[X12]LNS[X12]ERV[β3hE]WLR[X13]KLQ[β3hD]VHN-{NH(1S,2S-2-CONH2-cPent)}; N-terminus assumed), the “Fold PTH” value was 1.3. `CC[C@H](C)[C@H](NC(=O)[C@H](CCC(=O)O)NC(=O)[C@H](CO)NC(=O)[C@@H](NC(=O)[C@H]1CCC[C@@H]1N)C(C)C)C(=O)N[C@@H](CCC(N)=O)C(=O)N[C@H]1CCC[C@@H]1C(=O)N[C@@H](CCSC)C(=O)N[C@@H](Cc1c[nH]cn1)C(=O)N[C@@H](CC(N)=O)C(=O)N[C@@H](CC(C)C)C(=O)NCC(=O)N[C@@H](CCCCN)C(=O)N[C@H]1CCC[C@@H]1C(=O)N[C@@H](CC(C)C)C(=O)N[C@@H](CC(N)=O)C(=O)N[C@@H](CO)C(=O)N[C@H]1CCC[C@@H]1C(=O)N[C@@H](CCC(=O)O)C(=O)N[C@@H](CCCNC(=N)N)C(=O)N[C@H](C(=O)N[C@H]1CNC[C@@H]1C(=O)N[C@@H](Cc1c[nH]c2ccccc12)C(=O)N[C@@H](CC(C)C)C(=O)N[C@@H](CCCNC(=N)N)C(=O)N[C@H]1CNC[C@@H]1C(=O)N[C@@H](CCCCN)C(=O)N[C@@H](CC(C)C)C(=O)N[C@@H](CCC(N)=O)C(=O)N[C@H]1CCC[C@@H]1C(=O)N[C@H](C(=O)N[C@@H](Cc1c[nH]cn1)C(=O)N[C@@H](CC(N)=O)C(=O)N[C@H]1CCC[C@@H]1C(N)=O)C(C)C)C(C)C` [FcycD6_ACPC(1,7), XVSEIQXMHNLGKXLNSXERVZWLRZKLQXVHNX-NH2] ({ACPC(1S,2S)}-VSEIQ[X12]MHNLGK[X12]LNS[X12]ERV[X13]WLR[X13]KLQ[X12]VHN-{NH(1S,2S-2-CONH2-cPent)}; N-terminus assumed) was tested, and the “Fold PTH” value was 8.7.

Same assay, conditions: Table 9; read-out: EC50, nM (cAMP induction potency)
`CC[C@H](C)[C@H](NC(=O)[C@H](CCC(=O)O)NC(=O)[C@H](CO)NC(=O)[C@@H](NC(=O)[C@@H](N)CO)C(C)C)C(=O)N[C@@H](CCC(N)=O)C(=O)N[C@@H](CC(C)C)C(=O)N[C@@H](CCSC)C(=O)N[C@@H](Cc1c[nH]cn1)C(=O)N[C@@H](CC(N)=O)C(=O)N[C@@H](CC(C)C)C(=O)NCC(=O)N[C@@H](CCCCN)C(=O)N[C@H]1CCC[C@@H]1C(=O)N[C@@H](CC(C)C)C(=O)N[C@@H](CC(N)=O)C(=O)N[C@@H](CO)C(=O)N[C@H]1CCC[C@@H]1C(=O)N[C@@H](CCC(=O)O)C(=O)N[C@@H](CCCNC(=N)N)C(=O)N[C@H](C(=O)N[C@@H](CCC(=O)O)CC(=O)N[C@@H](Cc1c[nH]c2ccccc12)C(=O)N[C@@H](CC(C)C)C(=O)N[C@@H](CCCNC(=N)N)C(=O)N[C@H]1CNC[C@@H]1C(=O)N[C@@H](CCCCN)C(=O)N[C@@H](CC(C)C)C(=O)N[C@@H](CCC(N)=O)C(=O)N[C@@H](CC(=O)O)CC(=O)N[C@H](C(=O)N[C@@H](Cc1c[nH]cn1)C(=O)N[C@@H](CC(N)=O)C(=O)N[C@H]1CCC[C@@H]1C(N)=O)C(C)C)C(C)C` [cycD6, SVSEIQLMHNLGKXLNSXERVEWLRZKLQDVHNX-NH2] (H-SVSEIQLMHNLGK[X12]LNS[X12]ERV[β3hE]WLR[X13]KLQ[β3hD]VHN-{NH(1S,2S-2-CONH2-cPent)}; N-terminus assumed) was tested, and the EC50 was 0.1 ± 0.01 nM.

Same assay, conditions: Table 10
“AVAEIQXMHQ^hRAKXLNSXRRVEWLRZKLQDVHNX-NH2 [M-cycD6]” was tested, and the “Fold PTH” value was 4.0. For “XVUEXQXMHQ^hRAKWLNSMRRVEWLRKKLQDVHNF.-NH2 [M-X1,5,7-D6]”, the “Fold PTH” value was 9.7. With `CC[C@H](C)[C@H](NC(=O)[C@H](CCC(=O)O)NC(=O)C(C)(C)NC(=O)[C@@H](NC(=O)[C@H]1CCC[C@@H]1N)C(C)C)C(=O)N[C@@H](CCC(N)=O)C(=O)N[C@H]1CCC[C@@H]1C(=O)N[C@@H](CCSC)C(=O)N[C@@H](Cc1c[nH]cn1)C(=O)N[C@@H](CCC(N)=O)C(=O)N[C@@H](CCCCNC(=N)N)C(=O)N[C@@H](C)C(=O)N[C@@H](CCCCN)C(=O)N[C@H]1CCC[C@@H]1C(=O)N[C@@H](CC(C)C)C(=O)N[C@@H](CC(N)=O)C(=O)N[C@@H](CO)C(=O)N[C@H]1CCC[C@@H]1C(=O)N[C@@H](CCCNC(=N)N)C(=O)N[C@@H](CCCNC(=N)N)C(=O)N[C@H](C(=O)N[C@H]1CNC[C@@H]1C(=O)N[C@@H](Cc1c[nH]c2ccccc12)C(=O)N[C@@H](CC(C)C)C(=O)N[C@@H](CCCNC(=N)N)C(=O)N[C@H]1CNC[C@@H]1C(=O)N[C@@H](CCCCN)C(=O)N[C@@H](CC(C)C)C(=O)N[C@@H](CCC(N)=O)C(=O)N[C@H]1CCC[C@@H]1C(=O)N[C@H](C(=O)N[C@@H](Cc1c[nH]cn1)C(=O)N[C@@H](CC(N)=O)C(=O)N[C@H]1CCC[C@@H]1C(N)=O)C(C)C)C(C)C` [M-FcycD6_ACPC(1,7), XVUEIQXMHQ^hRAKXLNSXRRVZWLRZKLQXVHNX-NH2] ({ACPC(1S,2S)}-V[Aib]EIQ[X12]MHQ[hArg]AK[X12]LNS[X12]RRV[X13]WLR[X13]KLQ[X12]VHN-{NH(1S,2S-2-CONH2-cPent)}; N-terminus assumed) the “Fold PTH” value was 21.8. For “AVAEIQXMHQ^hRAKXLNSXRRVZWLRZKLQXVHNX-NH2 [M-FcycD6]”, the “Fold PTH” value was 6.3. For `CSCC[C@H](NC(=O)[C@H]1CCC[C@@H]1NC(=O)[C@H](CCC(N)=O)NC(=O)[C@H]1CCC[C@@H]1NC(=O)[C@H](CCC(=O)O)NC(=O)C(C)(C)NC(=O)[C@@H](NC(=O)[C@H]1CCC[C@@H]1N)C(C)C)C(=O)N[C@@H](Cc1c[nH]cn1)C(=O)N[C@@H](CCC(N)=O)C(=O)N[C@@H](CCCCNC(=N)N)C(=O)N[C@@H](C)C(=O)N[C@@H](CCCCN)C(=O)N[C@H]1CCC[C@@H]1C(=O)N[C@@H](CC(C)C)C(=O)N[C@@H](CC(N)=O)C(=O)N[C@@H](CO)C(=O)N[C@H]1CCC[C@@H]1C(=O)N[C@@H](CCCNC(=N)N)C(=O)N[C@@H](CCCNC(=N)N)C(=O)N[C@H](C(=O)N[C@@H](CCC(=O)O)CC(=O)N[C@@H](Cc1c[nH]c2ccccc12)C(=O)N[C@@H](CC(C)C)C(=O)N[C@@H](CCCNC(=N)N)C(=O)N[C@H]1CNC[C@@H]1C(=O)N[C@@H](CCCCN)C(=O)N[C@@H](CC(C)C)C(=O)N[C@@H](CCC(N)=O)C(=O)N[C@@H](CC(=O)O)CC(=O)N[C@H](C(=O)N[C@@H](Cc1c[nH]cn1)C(=O)N[C@@H](CC(N)=O)C(=O)N[C@H]1CCC[C@@H]1C(N)=O)C(C)C)C(C)C` [M-X1,5,7-CycD6, HXVUEXQXMHQ^hRAKXLNSXRRVEWLRZKLQDVHNX-NH2] ({ACPC(1S,2S)}-V[Aib]E[X12]Q[X12]MHQ[hArg]AK[X12]LNS[X12]RRV[β3hE]WLR[X13]KLQ[β3hD]VHN-{NH(1S,2S-2-CONH2-cPent)}; N-terminus assumed), the “Fold PTH” value was 3.8.
